From paper PMC9411704, “Assessment of the Carcinogenic Potential of Pretomanid in Transgenic Tg.rasH2 Mice” (International Journal of Toxicology, 2022)
Like-named read-outs stand apart in the source and are kept apart here.

Assays:
[1] = Mass balance study in humans using 14C-labelled pretomanid; format: in vivo; settings: human, plasma, oral; 6% of the pretomanid therapeutic AUC0-24, 200 mg/day; read-out: Estimated human AUC0-24 of M50
Tg.rasH2 mice = settings: for Incidence of lung adenoma, multiple / Incidence of lung adenoma, single / Incidence of lung carcinoma / Incidence of lung tumors, combined / Incidence of thymus, thymoma / Incidence of urethra papilloma / Incidence of Harderian gland carcinoma / Incidence of Harderian gland adenoma / Incidence of hemangiosarcoma, combined / Incidence of hemangiosarcoma, multicentric (includes abdominal skin and thoracic wall) / Incidence of hemangiosarcoma, spleen / Incidence of hemangiosarcoma, uterus / Incidence of hemangiosarcoma, vagina / Survival rate / Incidence of hemangiosarcoma, kidney / Incidence of hemangiosarcoma, spinal cord, lumbar: 26 weeks
Experimental: The vehicle was 0.5% carboxymethylcellulose (CMC) with 0.1% Tween 80 (v/v). The vehicle and pretomanid formulations were administered to mice by oral gavage once daily at a dosing volume of 10 mL/kg. Individual dose volumes were calculated based on each animal’s most recently recorded body weight. The dose formulations were magnetically stirred at room temperature for at least 30 minutes prior to and during dosing. The positive control was urethane in 0.9% sodium chloride and was administered via intraperitoneal injection for a total of three times. The positive control formulation was allowed to stand at room temperature for at least 30 minutes and inverted several times prior to dose administration. Aliquots (0.5 to 1.0 mL) were collected from the top, bottom, and middle of the first (week 1), interim (week 13), and last (week 25) pretomanid dose formulations to assess the accuracy of the concentration and/or homogeneity.
Male and female Tg.rasH2 [CByB6F1-Tg(HRAS)2Jic (+/−hemizygous c-Ha-ras)] mice (n = 110/sex) approximately 5 weeks of age were assigned to the main cohort groups to assess carcinogenicity. Male and female wild type CByB6F1 mice [CByB6F1-Tg(HRAS)2Jic (−/−homozygous c-Ha-ras)] (n = 34/sex) approximately 6 weeks of age were assigned to the cohort of mice used to assess the toxicokinetics of pretomanid and its M50 metabolite. […] All mice were obtained from Taconic Biosciences (Germantown, NY). The supplier verified that the mice were murine pathogen-free and females were nulliparous and non-pregnant. At the time of dosing initiation (Day 1), the toxicokinetic mice were approximately 8 weeks of age. On Day 1 of the study, the body weights of the main cohort mice ranged from 19.2 to 25.9 grams (males) and from 15.9 to 20.4 grams (females), and the body weights of the TK cohort mice ranged from 23.4 to 30.2 grams (males) and from 17.6 to 23.5 grams (females).
This study assessed the carcinogenic potential of pretomanid following repeated oral gavage administration once daily for 26 weeks in hemizygous Tg.rasH2 [CByB6F1-Tg(HRAS)2Jic (+/− hemizygous c-Ha-ras)] mice. This study also evaluated the TK profile of pretomanid and metabolite M50 in wild-type CByB6F1 [CByB6F1-Tg(HRAS)2Jic (−/−homozygous c-Ha-ras)] mice. The study was conducted under GLP regulations.
For carcinogenicity assessment (main cohort), 25 mice/sex were included in the vehicle control and pretomanid-treated groups. At the time of dosing initiation (Day 1), the main cohort mice used for assessing carcinogenicity were approximately 7 weeks of age and weighed between 15.9 to 20.4 g (females) and 19.2 to 25.9 g (males). Male groups (Groups 2, 4, and 6) received pretomanid in vehicle at doses of 5, 15, and 40 mg/kg/day, respectively. Female groups (Groups 3, 5, and 7) received pretomanid in vehicle at doses of 10, 30, and 80 mg/kg/day. Positive control mice (n = 10/sex) were included in the main cohort and received three intraperitoneal injections of urethane in saline (1000 mg/kg/injection) on Days 1, 3, and 5. The test and control articles were administered at a dose volume of 10 mL/kg body weight.
Clinical signs, body weights, and food consumption were assessed for the main cohort animals to monitor animal health and any potential toxicity from pretomanid administration. In-life measurements were recorded in Provantis™ Version 9.4.6.3 (Instem, Philadelphia, PA).
All animals, including those in the TK cohort, were observed twice daily for morbidity and mortality. For animals in the main cohort, cage side observations were performed on the day of dosing within 2 hours after the last animal in each group was dosed (Days 1, 3, and 5 for positive control animals).

[2] = female, Tg.rasH2 [CByB6F1-Tg(HRAS)2Jic (+/- hemizygous c-Ha-ras)], mouse, in vivo, po, 10 mg/kg/day
[3] = female, Tg.rasH2 [CByB6F1-Tg(HRAS)2Jic (+/- hemizygous c-Ha-ras)], mouse, in vivo, po, 30 mg/kg/day
[4] = female, Tg.rasH2 [CByB6F1-Tg(HRAS)2Jic (+/- hemizygous c-Ha-ras)], mouse, in vivo, po, 80 mg/kg/day
[5] = female, Tg.rasH2 [CByB6F1-Tg(HRAS)2Jic, hemizygous c-Ha-ras], mouse, in vivo, po, 10 mg/kg/day
[6] = female, Tg.rasH2 [CByB6F1-Tg(HRAS)2Jic, hemizygous c-Ha-ras], mouse, in vivo, po, 30 mg/kg/day
[7] = female, Tg.rasH2 [CByB6F1-Tg(HRAS)2Jic, hemizygous c-Ha-ras], mouse, in vivo, po, 80 mg/kg/day
[8] = male, Tg.rasH2 [CByB6F1-Tg(HRAS)2Jic (+/- hemizygous c-Ha-ras)], mouse, in vivo, po, 5 mg/kg/day
[9] = male, Tg.rasH2 [CByB6F1-Tg(HRAS)2Jic (+/- hemizygous c-Ha-ras)], mouse, in vivo, po, 15 mg/kg/day
[10] = male, Tg.rasH2 [CByB6F1-Tg(HRAS)2Jic (+/- hemizygous c-Ha-ras)], mouse, in vivo, po, 40 mg/kg/day
[11] = male, Tg.rasH2 [CByB6F1-Tg(HRAS)2Jic, hemizygous c-Ha-ras], mouse, in vivo, po, 5 mg/kg/day
[12] = male, Tg.rasH2 [CByB6F1-Tg(HRAS)2Jic, hemizygous c-Ha-ras], mouse, in vivo, po, 15 mg/kg/day
[13] = male, Tg.rasH2 [CByB6F1-Tg(HRAS)2Jic, hemizygous c-Ha-ras], mouse, in vivo, po, 40 mg/kg/day

Compound: O=[N+]([O-])c1cn2c(n1)OC[C@@H](O)C2 [M50]
- AUC(0-t) [1]: ~3000 ng·h/mL

Compound: O=[N+]([O-])c1cn2c(n1)OC[C@@H](OCc1ccc(OC(F)(F)F)cc1)C2 [Pretomanid, (6S)-2-nitro-6-{[4-(trifluoromethoxy)benzyl]oxy}-6,7-dihydro-5H-imidazo[2,1-b][1,3]oxazine]
- Early death: cause of death (Tg.rasH2 mice; Group 3F, female, 10 mg/kg/d): Multicentric hemangiosarcoma
- Early death: day of death (Tg.rasH2 mice; Group 3F, female, 10 mg/kg/d): 184
- Early death: interpretation (Tg.rasH2 mice; Group 3F, female, 10 mg/kg/d): Natural death
- Early death: cause of death (Tg.rasH2 mice; Group 5F, female, 30 mg/kg/d): Caught in feeder
- Early death: day of death (Tg.rasH2 mice; Group 5F, female, 30 mg/kg/d): 7
- Early death: interpretation (Tg.rasH2 mice; Group 5F, female, 30 mg/kg/d): Accidental
- Early death: interpretation (Tg.rasH2 mice; Group 7F, female, 80 mg/kg/d (two animals)): Natural death
- Incidence of lung adenoma, multiple (Tg.rasH2 mice; [2]): 0%
- Incidence of lung adenoma, single (Tg.rasH2 mice; [2]): 0%
- Incidence of lung carcinoma (Tg.rasH2 mice; [2]): 0%
- Incidence of lung tumors, combined (Tg.rasH2 mice; [2]): 0%
- Incidence of thymus, thymoma (Tg.rasH2 mice; [2]): 4%
- Incidence of urethra papilloma (Tg.rasH2 mice; [2]): 0%
- Incidence of Harderian gland carcinoma (Tg.rasH2 mice; [3]): 0%
- Incidence of lung adenoma, multiple (Tg.rasH2 mice; [3]): 0%
- Incidence of lung adenoma, single (Tg.rasH2 mice; [3]): 4%
- Incidence of lung carcinoma (Tg.rasH2 mice; [3]): 0%
- Incidence of lung tumors, combined (Tg.rasH2 mice; [3]): 4%
- Incidence of thymus, thymoma (Tg.rasH2 mice; [3]): 0%
- Incidence of urethra papilloma (Tg.rasH2 mice; [3]): 0%
- Incidence of Harderian gland carcinoma (Tg.rasH2 mice; [4]): 8%
- Incidence of lung adenoma, multiple (Tg.rasH2 mice; [4]): 0%
- Incidence of lung adenoma, single (Tg.rasH2 mice; [4]): 0%
- Incidence of lung carcinoma (Tg.rasH2 mice; [4]): 8%
- Incidence of lung tumors, combined (Tg.rasH2 mice; [4]): 8%
- Incidence of thymus, thymoma (Tg.rasH2 mice; [4]): 0%
- Incidence of urethra papilloma (Tg.rasH2 mice; [4]): 4%
- Incidence of Harderian gland adenoma (Tg.rasH2 mice; [5]): 0%
- Incidence of Harderian gland carcinoma (Tg.rasH2 mice; [5]): 4%
- Incidence of hemangiosarcoma, combined (Tg.rasH2 mice; [5]): 8%
- Incidence of hemangiosarcoma, multicentric (includes abdominal skin and thoracic wall) (Tg.rasH2 mice; [5]): 4%
- Incidence of hemangiosarcoma, spleen (Tg.rasH2 mice; [5]): 0%
- Incidence of hemangiosarcoma, uterus (Tg.rasH2 mice; [5]): 4%
- Incidence of hemangiosarcoma, vagina (Tg.rasH2 mice; [5]): 0%
- Incidence of Harderian gland adenoma (Tg.rasH2 mice; [6]): 8%
- Incidence of hemangiosarcoma, combined (Tg.rasH2 mice; [6]): 4%
- Incidence of hemangiosarcoma, multicentric (includes abdominal skin and thoracic wall) (Tg.rasH2 mice; [6]): 0%
- Incidence of hemangiosarcoma, spleen (Tg.rasH2 mice; [6]): 0%
- Incidence of hemangiosarcoma, uterus (Tg.rasH2 mice; [6]): 0%
- Incidence of hemangiosarcoma, vagina (Tg.rasH2 mice; [6]): 4%
- Incidence of Harderian gland adenoma (Tg.rasH2 mice; [7]): 0%
- Incidence of hemangiosarcoma, combined (Tg.rasH2 mice; [7]): 8%
- Incidence of hemangiosarcoma, multicentric (includes abdominal skin and thoracic wall) (Tg.rasH2 mice; [7]): 0%
- Incidence of hemangiosarcoma, spleen (Tg.rasH2 mice; [7]): 8%
- Incidence of hemangiosarcoma, uterus (Tg.rasH2 mice; [7]): 0%
- Incidence of hemangiosarcoma, vagina (Tg.rasH2 mice; [7]): 0%
- Survival rate (Tg.rasH2 mice; females, high-dose (80 mg/kg/day)): 92%
- Survival rate (Tg.rasH2 mice; females, low-dose (10 mg/kg/day)): 96%
- Survival rate (Tg.rasH2 mice; females, mid-dose (30 mg/kg/day)): 100%
- Incidence of Harderian gland adenoma (Tg.rasH2 mice; [8]): 4%
- Incidence of Harderian gland carcinoma (Tg.rasH2 mice; [8]): 0%
- Incidence of hemangiosarcoma, combined (Tg.rasH2 mice; [8]): 4%
- Incidence of hemangiosarcoma, kidney (Tg.rasH2 mice; [8]): 4%
- Incidence of hemangiosarcoma, spinal cord, lumbar (Tg.rasH2 mice; [8]): 0%
- Incidence of hemangiosarcoma, spleen (Tg.rasH2 mice; [8]): 0%
- Incidence of Harderian gland adenoma (Tg.rasH2 mice; [9]): 0%
- Incidence of hemangiosarcoma, combined (Tg.rasH2 mice; [9]): 0%
- Incidence of hemangiosarcoma, kidney (Tg.rasH2 mice; [9]): 0%
- Incidence of hemangiosarcoma, spinal cord, lumbar (Tg.rasH2 mice; [9]): 0%
- Incidence of hemangiosarcoma, spleen (Tg.rasH2 mice; [9]): 0%
- Incidence of Harderian gland adenoma (Tg.rasH2 mice; [10]): 0%
- Incidence of hemangiosarcoma, combined (Tg.rasH2 mice; [10]): 12%
- Incidence of hemangiosarcoma, kidney (Tg.rasH2 mice; [10]): 0%
- Incidence of hemangiosarcoma, spinal cord, lumbar (Tg.rasH2 mice; [10]): 0%
- Incidence of hemangiosarcoma, spleen (Tg.rasH2 mice; [10]): 12%
- Incidence of lung adenoma, multiple (Tg.rasH2 mice; [11]): 0%
- Incidence of lung adenoma, single (Tg.rasH2 mice; [11]): 20%
- Incidence of lung carcinoma (Tg.rasH2 mice; [11]): 0%
- Incidence of lung tumors, combined (Tg.rasH2 mice; [11]): 20%
- Incidence of Harderian gland carcinoma (Tg.rasH2 mice; [12]): 0%
- Incidence of lung adenoma, multiple (Tg.rasH2 mice; [12]): 0%
- Incidence of lung adenoma, single (Tg.rasH2 mice; [12]): 8%
- Incidence of lung carcinoma (Tg.rasH2 mice; [12]): 0%
- Incidence of lung tumors, combined (Tg.rasH2 mice; [12]): 8%
- Incidence of Harderian gland carcinoma (Tg.rasH2 mice; [13]): 4%
- Incidence of lung adenoma, multiple (Tg.rasH2 mice; [13]): 0%
- Incidence of lung adenoma, single (Tg.rasH2 mice; [13]): 4%
- Incidence of lung carcinoma (Tg.rasH2 mice; [13]): 0%
- Incidence of lung tumors, combined (Tg.rasH2 mice; [13]): 4%
- Survival rate (Tg.rasH2 mice; males, high-dose (40 mg/kg/day)): 100%
- Survival rate (Tg.rasH2 mice; males, low-dose (5 mg/kg/day)): 100%
- Survival rate (Tg.rasH2 mice; males, mid-dose (15 mg/kg/day)): 100%
- Incidence of hemangiosarcoma vs vehicle control (Tg.rasH2 mice; mouse, in vivo): did not significantly increase
- Incidence of lung tumors vs vehicle control (Tg.rasH2 mice; mouse, in vivo): did not significantly increase
- Incidence of non-vascular and non-pulmonary tumors (Tg.rasH2 mice; mouse, in vivo): did not significantly increase
- Non-neoplastic microscopic findings (Tg.rasH2 mice; mouse, in vivo): did not produce non-neoplastic microscopic findings
- Mean food consumption from Day 1 to 183 vs vehicle control (Tg.rasH2 mice; mouse, in vivo, 30 mg/kg/day): significantly increased
- Clinical signs of toxicity (Tg.rasH2 mice; mouse, in vivo, po): did not produce clinical signs of toxicity
- Effect on food consumption (Tg.rasH2 mice; mouse, in vivo, po): did not affect food consumption
